Results from patent publication US6737383B1, “Herbicidal oxadiazolidines” (priority 1999, dated 2004).

Assays:
bamyardgrass = assay: Test B flood test barnyardgrass; type: in vivo, Echinochloa crus-galli
Method in brief: (§1)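 Flood test on plants grown to the 2-leaf stage; treated plants kept in greenhouse twelve to sixteen days, then visually rated against controls on a 0 (no effect) to 10 (complete control) scale.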

blackgrass = assay: Test B pre/postemergence blackgrass; type: in vivo, Alopecurus myosuroides
Method in brief: (§2)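 Herbicidal effect was estimated by eye on a ten-point control scale after plants spent twelve to sixteen days in a greenhouse following soil or foliar treatment. Foliar sprays targeted plants at one to four leaves; all doses were formulated in a non-phytotoxic solvent with surfactant.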

wheat = assay: Test B pre/postemergence wheat; type: in vivo, Triticum aestivum; settings: for Plant response rating, Wheat: Rate 250 g/ha
Method in brief: as §2

bedstraw = assay: Test B pre/postemergence bedstraw; type: in vivo, Galium aparine
Method in brief: as §2

wild oat = assay: Test B pre/postemergence wild oat; type: in vivo, Avena fatua; settings: for Plant response rating, Wild oats: Rate 250 g/ha
Method in brief: as §2

corn = assay: Test B pre/postemergence corn; type: in vivo, Zea mays
Method in brief: as §2

rice = assay: Test B flood test rice; type: in vivo, Oryza sativa
Method in brief: as §1

purple nutsedge = assay: Test B pre/postemergence purple nutsedge; type: in vivo, Cyperus rotundus
Method in brief: as §2

smallflower flatsedge = assay: Test B flood test smallflower flatsedge; type: in vivo, Cyperus difformis
Method in brief: as §1

velvetleaf = assay: Test B pre/postemergence velvetleaf; type: in vivo, Abutilon theophrasti; settings: for Plant response rating, Velvetleaf: Rate 250 g/ha
Method in brief: as §2

duck salad = assay: Test B flood test duck salad; type: in vivo, Heteranthera limosa
Method in brief: as §1

giant foxtail = assay: Test B pre/postemergence giant foxtail; type: in vivo, Setaria faberii
Method in brief: as §2

crabgrass = assay: Test B pre/postemergence crabgrass; type: in vivo, Digitaria sanguinalis
Method in brief: as §2

morningglory = assay: Test B pre/postemergence morningglory; type: in vivo, Ipomoea hederacea
Method in brief: as §2

cocklebur = assay: Test B pre/postemergence cocklebur; type: in vivo, Xanthium strumarium
Method in brief: as §2

surinam grass = assay: Test B pre/postemergence surinam grass; type: in vivo, Brachiaria decumbens
Method in brief: as §2

[1] = Postemergence, Rate 62 g/ha, scale 0 to 10, 0 is no effect, 10 is complete control
[2] = Rate 500 g/ha, listed under Postemergence (flood test species), scale 0 to 10, 0 no effect, 10 complete control
[3] = flood test, listed under Postemergence, Rate 250 g/ha, scale 0 to 10, 0 no effect, 10 complete control
[4] = Postemergence, Rate 125 g/ha, scale of 0 to 10 where 0 is no effect and 10 is complete control
[5] = Postemergence, Rate 250 g/ha, scale 0 to 10, 0 no effect, 10 complete control
[6] = Preemergence, Rate 62 g/ha, scale 0 to 10 (0 no effect, 10 complete control)
[7] = Preemergence, Rate 125 g/ha, scale 0 to 10 (0 no effect, 10 complete control)
[8] = Preemergence, Rate 250 g/ha, scale of 0 to 10 where 0 is no effect and 10 is complete control
[9] = Preemergence, Rate 500 g/ha, scale 0 (no effect) to 10 (complete control)
[10] = Rate 500 g/ha, Postemergence, scale 0 to 10, 0 no effect, 10 complete control
[11] = Preemergence, Rate 125 g/ha, 0 is no effect, 10 is complete control
[12] = Preemergence, scale of 0 to 10 where 0 is no effect and 10 is complete control
[13] = Postemergence, scale 0 to 10, 0 is no effect, 10 is complete control
[14] = Rate 125 g/ha, Postemergence, scale 0 to 10, 0 no effect, 10 complete control
[15] = Postemergence (flood test species), Rate 125 g/ha, scale of 0 to 10 where 0 is no effect and 10 is complete control
[16] = Rate 250 g/ha, Postemergence (flood test), scale 0 to 10, 0 is no effect, 10 is complete control

Cc1nn(C)c(Cl)c1-n1c(=O)on(C(=O)N(c2ccc(F)cc2)C(C)C)c1=O [Compound 95]
Barnyardgrass plant response rating (bamyardgrass; [1]): 0 | Barnyardgrass plant response rating (bamyardgrass; Rate 125 g/ha, Postemergence section (flood test species), scale 0 to 10, 0 no effect, 10 complete control): 0 | Barnyardgrass plant response rating (bamyardgrass; [2]): 4 | Barnyardgrass plant response rating (bamyardgrass; [3]): 0 | Blackgrass plant response rating (blackgrass; [1]): 0 | Blackgrass plant response rating (blackgrass; [4]): 0 | Blackgrass plant response rating (blackgrass; [5]): 4 | Blackgrass plant response rating (blackgrass; [6]): 0 | Plant response rating, Blackgrass (blackgrass; [7]): 2 | Plant response rating, Blackgrass (blackgrass; [8]): 4 | Blackgrass plant response rating (blackgrass; [9]): 6 | Blackgrass plant response rating (blackgrass; [10]): 5 | Wheat plant response rating (wheat; [1]): 0 | Wheat plant response rating (wheat; [4]): 0 | Wheat plant response rating (wheat; [6]): 0 | Wheat plant response rating (0 to 10 scale) (wheat; [11]): 0 | Plant response rating, Wheat (wheat; [12]): 0 | Wheat plant response rating (wheat; [9]): 0 | Plant response rating, Wheat (wheat; [13]): 0 | Wheat plant response rating (wheat; [10]): 0 | Bedstraw plant response rating (bedstraw; [1]): 0 | Bedstraw plant response rating (bedstraw; [5]): 0 | Bedstraw plant response rating (bedstraw; [6]): 0 | Plant response rating, Bedstraw (bedstraw; [7]): 0 | Plant response rating, Bedstraw (bedstraw; [8]): 0 | Bedstraw plant response rating (bedstraw; [9]): 0 | Bedstraw plant response rating (bedstraw; [14]): 0 | Bedstraw plant response rating (bedstraw; [10]): 2 | Wild oats plant response rating (wild oat; [1]): 0 | Wild oats plant response rating (wild oat; [4]): 0 | Wild oats plant response rating (wild oat; [6]): 0 | Wild oats plant response rating (0 to 10 scale) (wild oat; [11]): 0 | Plant response rating, Wild oats (wild oat; [12]): 2 | Wild oats plant response rating (wild oat; [9]): 5 | Plant response rating, Wild oats (wild oat; [13]): 0 | Wild oats plant response rating (wild oat; [10]): 3 | Corn plant response rating (corn; [1]): 0 | Corn plant response rating (corn; [4]): 0 | Corn plant response rating (corn; [5]): 0 | Corn plant response rating (corn; [6]): 0 | Plant response rating, Corn (corn; [7]): 0 | Plant response rating, Corn (corn; [8]): 0 | Corn plant response rating (corn; [9]): 0 | Corn plant response rating (corn; [10]): 0 | Rice plant response rating (rice; [15]): 0 | Rice plant response rating (rice; [1]): 0 | Plant response rating, Rice (rice; [16]): 2 | Rice plant response rating (rice; [2]): 4 | Nutsedge plant response rating (purple nutsedge; [1]): 0 | Nutsedge plant response rating (purple nutsedge; [4]): 0 | Nutsedge plant response rating (purple nutsedge; [5]): 0 | Nutsedge plant response rating (purple nutsedge; [6]): 0 | Plant response rating, Nutsedge (purple nutsedge; [7]): 0 | Plant response rating, Nutsedge (purple nutsedge; [8]): 0 | Nutsedge plant response rating (purple nutsedge; [9]): 0 | Nutsedge plant response rating (purple nutsedge; [10]): 0 | S. Flatsedge plant response rating (smallflower flatsedge; [15]): 0 | S. Flatsedge plant response rating (smallflower flatsedge; [1]): 0 | Plant response rating, S. Flatsedge (smallflower flatsedge; [16]): 0 | S. Flatsedge plant response rating (smallflower flatsedge; [2]): 5 | Velvetleaf plant response rating (velvetleaf; [1]): 0 | Velvetleaf plant response rating (velvetleaf; [4]): 0 | Velvetleaf plant response rating (velvetleaf; [6]): 0 | Velvetleaf plant response rating (0 to 10 scale) (velvetleaf; [11]): 0 | Plant response rating, Velvetleaf (velvetleaf; [12]): 0 | Velvetleaf plant response rating (velvetleaf; [9]): 0 | Plant response rating, Velvetleaf (velvetleaf; [13]): 0 | Velvetleaf plant response rating (velvetleaf; [10]): 0 | Ducksalad plant response rating (duck salad; [15]): 0 | Ducksalad plant response rating (duck salad; [1]): 0 | Ducksalad plant response rating (duck salad; [2]): 0 | Ducksalad plant response rating (duck salad; [3]): 0 | Giant foxtail plant response rating (giant foxtail; [1]): 0 | Giant foxtail plant response rating (giant foxtail; [4]): 0 | Giant foxtail plant response rating (giant foxtail; [5]): 1 | Giant foxtail plant response rating (giant foxtail; [6]): 2 | Plant response rating, Giant foxtail (giant foxtail; [7]): 4 | Plant response rating, Giant foxtail (giant foxtail; [8]): 7 | Giant foxtail plant response rating (giant foxtail; [9]): 8 | Giant foxtail plant response rating (giant foxtail; [10]): 6 | Crabgrass plant response rating (crabgrass; [1]): 0 | Crabgrass plant response rating (crabgrass; [4]): 0 | Crabgrass plant response rating (crabgrass; [5]): 6 | Crabgrass plant response rating (crabgrass; [6]): 2 | Plant response rating, Crabgrass (crabgrass; [7]): 6 | Plant response rating, Crabgrass (crabgrass; [8]): 8 | Crabgrass plant response rating (crabgrass; [9]): 8 | Crabgrass plant response rating (crabgrass; [10]): 8 | Morningglory plant response rating (morningglory; [1]): 1 | Morningglory plant response rating (morningglory; [4]): 1 | Morningglory plant response rating (morningglory; [5]): 2 | Morningglory plant response rating (morningglory; [6]): 0 | Plant response rating, Morningglory (morningglory; [7]): 0 | Plant response rating, Morningglory (morningglory; [8]): 0 | Morningglory plant response rating (morningglory; [9]): 0 | Morningglory plant response rating (morningglory; [10]): 8 | Cocklebur plant response rating (cocklebur; [1]): 0 | Cocklebur plant response rating (cocklebur; [4]): 0 | Cocklebur plant response rating (cocklebur; [5]): 1 | Cocklebur plant response rating (cocklebur; [6]): 0 | Plant response rating, Cocklebur (cocklebur; [7]): 0 | Plant response rating, Cocklebur (cocklebur; [8]): 0 | Cocklebur plant response rating (cocklebur; [9]): 0 | Cocklebur plant response rating (cocklebur; [10]): 2 | B. signalgrass plant response rating (surinam grass; [1]): 0 | B. signalgrass plant response rating (surinam grass; [5]): 3 | B. signalgrass plant response rating (surinam grass; [6]): 0 | Plant response rating, B. signalgrass (surinam grass; [7]): 0 | Plant response rating, B. signalgrass (surinam grass; [8]): 3 | B. signalgrass plant response rating (surinam grass; [9]): 7 | B. signalgrass plant response rating (surinam grass; [14]): 0 | B. signalgrass plant response rating (surinam grass; Rate 500 g/ha, Postemergence, scale of 0 to 10 where 0 is no effect and 10 is complete control): 5
